The values below are quoted from earlier work in patent US6692771B2, “Emulsions as solid dosage forms for oral administration” (CIMA Labs Inc., priority 2001, dated 2004).

For this series the following is noted: orally administered dose; average value given in parentheses.

Consider `Oc1ccc2c3c1O[C@H]1[C@@H](O)CC[C@@]4(O)[C@@H](C2)N(CC2CCC2)CC[C@]314` [nalbuphine], for which the average bioavailability entry is recorded as “approximately 17%”.

As to methyldopa, the average bioavailability is 25%.
